We go through one compound from US6906061B2, “Pharmaceutical agent containing Rho kinase inhibitor” (Mitsubishi Pharma Corporation, priority 1996, dated 2005).

In data set [1] the target is T1, ROCKII (Mus musculus, UniProt P70336).
T1 construct: made in house; host or cells: COS cells (transient transfection, immunoprecipitated with 9E10 anti-myc antibody on protein G-Sepharose)
As to the kind of experiment: Inhibition of ROCKII (myc-tagged, expressed in COS cells). The note with it: enzyme expressed in COS cells; read-out: IC50 (μM) ROCK-II. Type of data set: biochemical. On the procedure:
(§1) Kinase assay included the following steps. That is, a reaction mixture (total amount 30 μl) containing 50 mM Hepes-NaOH (pH=7.4), 10 mM MgCl2, 5 mM MnCl2, 2 mM dithiothreitol, 0.02% Brij35, 1 μM [γ-^32P]ATP, 330 μg/ml histone, p160ROCK (2 μl) isolated by the method of Ishizaki et al. and the test compound was incubated at 30° C. for 20 minutes. The solution was mixed with a 1/3 amount of 4× Laemmli sample buffer, boiled for 5 minutes and applied to SDS-PAGE. The gel was stained with Coomassie Brilliant Blue and dried. The band of histone was cut out and assayed for radioactivity.
(§2) Rho Kinase Inhibitory Action (Inhibition of p160ROCK and ROCKII)
(§3) COS cells were seeded in a 3.5 cm dish and incubated overnight. […] After incubation for 20 hours, the cells were washed once with ice-cooled PBS, and the cells were lysed on ice for 20 minutes using a lysis buffer (20 mM Tris-HCl (pH=7.5), 1 mM EDTA, 1 mM EGTA, 5 mM MgCl2, 25 mM NaF, 10 mM β glycerophosphate, 5 mM sodium pyrophorphate, 0.2 mM phenylmethylsulfonyl fluoride, 2 mM dithiothreitol, 0.2 mM sodium vanadate, 0.05% Triton X-100, 0.1 μM calyculin A). The lysate was centrifuged at 10,000×g for 10 minutes and the supernatant was recovered. […] Then, protein G-Sepharose was added and the mixture was shaken for 2 more hours. […]

Data set [2] concerns mouse femoral bone. As to the kind of experiment: Inhibition of bone resorption (in vitro), mouse femoral bone. The note with it: 144 h, 6 days incubation of ICR mouse femoral bone. As to the method:
Inhibition of Bone Resorption (in vitro)
The determination of the in vitro inhibition of bone resorption using mouse femoral bone followed the method below.
The femoral bone of 3-6 week old male ICR mice was aseptically removed, and bone marrow cavity was washed with F12 medium, containing 10% heat inactivated fetal bovine serum, penicillin G calcium (100 units/ml), kanamycin sulfate (60 μg) and 0.15% sodium hydrogencarbonate (hereinafter the medium is to be referred to as culture solution). After washing the bone marrow cavity and then removing the soft tissue adhered to the bone, the bone was subjected to incubation. The test compound was once dissolved in dimethyl sulfoxide (DMSO) to give a 10 mg/ml solution, which was diluted 1000-fold with the culture solution to give a 10 μg/ml solution. The test compounds were respectively added to the concentration shown in Table 7 and, using this culture solution (1.2 ml), the ICR mouse femoral bone was incubated in a 24 well plate for 6 days under the conditions of 5% CO2 gas, 95% air. After the completion of the incubation, the culture supernatant was recovered, and the amount of calcium suspending in the culture supernatant was quantitatively determined by the chelate method using o-cresolphthalein. The bone resorption inhibitory action of the test compound was calculated by the following formula using the incubation of the femoral bone without addition of the test compound as a control. [formula] This experiment was done with 4 cases in each group. As the control, the same amount of DMSO alone as in the case with the addition of the test compound was used.

For data set [3], the target named is T2, p160ROCK (Homo sapiens, UniProt Q13464).
T2 construct: made in house; host or cells: COS cells (transient transfection, immunoprecipitated with 9E10 anti-myc antibody on protein G-Sepharose)
In words: Inhibition of p160ROCK (myc-tagged, expressed in COS cells). The note with it: enzyme expressed in COS cells. Format: biochemical. As to the method: as §1, §2, §3

The test system of data set [4] is CEM cells (human T cell type established cell). In words: Inhibition of VLA integrin activation (phorbol ester-induced adhesion of CEM cells to fibronectin). Type of data set: cell-based. The note with it: CCRF-CEM, concentration 100 μM, PMA-induced adhesion, read-out: Adhesion induction inhibition (%). As to the method:
Inhibition of VLA (Very Late Antigen) Integrin Activation
As the index of the activation by VLA integrin, phorbol ester-induced adhesion of CEM cells (human T cell type established cell) to fibronectin, which is a ligand of VIA integrin, was measured. The inhibitory action on the induced adhesion by the test compound was determined by the following method.
CEM cells were washed with RPMI1640 medium containing 0.5% bovine serum albumin (BSA), 10 mM HEPES, 2 mM L-glutamin, 1 mM sodium pyruvate, 60 μg/ml kanamycin sulfate and 1.5 mg/ml sodium hydrogencarbonate (hereinafter this medium is referred to as culture solution) and suspended in this medium for use in the following experiment. To each well of a 96 well plate coated with human fibronectin were added CEM cells (5×10^4) and the test compound dissolved in the culture solution (final concentration 1-100 μM) to the amount of 100 μl, and the plate was stood at 37° C. for 1 hour. Then, PMA (phorbol 12-myristate 13-acetate, TPA; final concentration 10 ng/ml) and the test compound were added to the amount of 200 μl, and the plate was stood at 37° C. for 30 minutes. Each well was washed twice with the culture solution (200 μL) at 37° C., and the LDH (lactate dehydrogenase) activity of the cells adhered to the plate was determined, whereby the amount of the adhered cell was measured. Based on the results obtained by the above-mentioned method, the inhibitory action of the test compound on the induced adhesion was calculated by the following formula The results are shown in Table 6. Inhibition (%) of adhesion induction=(a−b)/(a−c)×100 • a=number of cells adhered with the addition of PMA • b=number of cells adhered with the addition of test compound and PMA • c=number of cells adhered without stimulation

In data set [5] the test system is ddY mice. In words: Acute toxicity in ddY mice. Format: in vivo. The note with it: intraperitoneal administration at 30 mg/kg, monitored for 5 days. The text has this: The compound 109.2HCl and compound 143.2HCl.H2O were respectively administered intraperitoneally to ddY mice and the mice were monitored for 5 days.
The target in data set [6] is T3, Human Platelet Rho Kinase (p160ROCK) (Homo sapiens, UniProt Q13464).
T3 construct: Human platelet p160ROCK was isolated by the method of Ishizaki et al; from tissue; host or cells: human platelets
In words: Rho kinase inhibitory action (inhibition of human platelet Rho kinase (p160ROCK)). Format: biochemical. The note with it: histone substrate, 1 μM ATP. As to the method:
Rho Kinase Inhibitory Action (Inhibition of Human Platelet Rho Kinase (p160ROCK))
as §1

T3 sequence (Q13464 whole entry): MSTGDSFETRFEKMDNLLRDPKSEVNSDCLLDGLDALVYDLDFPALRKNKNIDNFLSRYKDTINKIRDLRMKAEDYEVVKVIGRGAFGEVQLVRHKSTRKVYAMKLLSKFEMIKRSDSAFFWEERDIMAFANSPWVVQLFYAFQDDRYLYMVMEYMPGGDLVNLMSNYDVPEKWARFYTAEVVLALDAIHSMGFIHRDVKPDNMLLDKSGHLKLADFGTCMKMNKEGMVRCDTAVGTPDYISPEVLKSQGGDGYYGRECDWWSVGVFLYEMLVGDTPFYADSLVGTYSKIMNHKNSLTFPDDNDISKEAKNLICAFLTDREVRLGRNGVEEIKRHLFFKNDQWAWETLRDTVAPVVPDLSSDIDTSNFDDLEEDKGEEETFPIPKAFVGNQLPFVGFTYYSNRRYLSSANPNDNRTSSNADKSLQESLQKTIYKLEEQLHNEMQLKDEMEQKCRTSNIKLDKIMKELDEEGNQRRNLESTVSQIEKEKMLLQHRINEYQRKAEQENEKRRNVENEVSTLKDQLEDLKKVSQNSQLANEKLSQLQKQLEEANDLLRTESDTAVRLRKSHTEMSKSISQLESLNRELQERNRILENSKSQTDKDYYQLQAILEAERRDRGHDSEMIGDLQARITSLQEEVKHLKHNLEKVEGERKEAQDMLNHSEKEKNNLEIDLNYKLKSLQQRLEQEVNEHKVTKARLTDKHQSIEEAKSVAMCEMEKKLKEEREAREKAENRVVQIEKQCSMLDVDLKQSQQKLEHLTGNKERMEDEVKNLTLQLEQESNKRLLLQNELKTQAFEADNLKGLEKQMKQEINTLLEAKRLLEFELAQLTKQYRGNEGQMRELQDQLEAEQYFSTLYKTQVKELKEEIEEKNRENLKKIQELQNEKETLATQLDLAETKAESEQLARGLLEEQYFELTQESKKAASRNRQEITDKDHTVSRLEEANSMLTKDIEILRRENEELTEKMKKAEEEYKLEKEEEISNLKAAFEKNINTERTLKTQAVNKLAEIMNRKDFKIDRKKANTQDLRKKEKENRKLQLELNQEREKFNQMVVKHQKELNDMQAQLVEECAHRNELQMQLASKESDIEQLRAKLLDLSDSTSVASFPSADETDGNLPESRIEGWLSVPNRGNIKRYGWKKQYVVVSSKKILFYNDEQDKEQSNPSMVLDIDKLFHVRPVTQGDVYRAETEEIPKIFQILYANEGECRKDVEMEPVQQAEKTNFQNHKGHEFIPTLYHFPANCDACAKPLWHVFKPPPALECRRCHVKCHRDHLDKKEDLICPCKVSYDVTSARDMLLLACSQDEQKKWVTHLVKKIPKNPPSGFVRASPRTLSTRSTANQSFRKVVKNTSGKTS
T2 sequence (Q13464 whole entry): as above
T1 sequence (P70336 whole entry): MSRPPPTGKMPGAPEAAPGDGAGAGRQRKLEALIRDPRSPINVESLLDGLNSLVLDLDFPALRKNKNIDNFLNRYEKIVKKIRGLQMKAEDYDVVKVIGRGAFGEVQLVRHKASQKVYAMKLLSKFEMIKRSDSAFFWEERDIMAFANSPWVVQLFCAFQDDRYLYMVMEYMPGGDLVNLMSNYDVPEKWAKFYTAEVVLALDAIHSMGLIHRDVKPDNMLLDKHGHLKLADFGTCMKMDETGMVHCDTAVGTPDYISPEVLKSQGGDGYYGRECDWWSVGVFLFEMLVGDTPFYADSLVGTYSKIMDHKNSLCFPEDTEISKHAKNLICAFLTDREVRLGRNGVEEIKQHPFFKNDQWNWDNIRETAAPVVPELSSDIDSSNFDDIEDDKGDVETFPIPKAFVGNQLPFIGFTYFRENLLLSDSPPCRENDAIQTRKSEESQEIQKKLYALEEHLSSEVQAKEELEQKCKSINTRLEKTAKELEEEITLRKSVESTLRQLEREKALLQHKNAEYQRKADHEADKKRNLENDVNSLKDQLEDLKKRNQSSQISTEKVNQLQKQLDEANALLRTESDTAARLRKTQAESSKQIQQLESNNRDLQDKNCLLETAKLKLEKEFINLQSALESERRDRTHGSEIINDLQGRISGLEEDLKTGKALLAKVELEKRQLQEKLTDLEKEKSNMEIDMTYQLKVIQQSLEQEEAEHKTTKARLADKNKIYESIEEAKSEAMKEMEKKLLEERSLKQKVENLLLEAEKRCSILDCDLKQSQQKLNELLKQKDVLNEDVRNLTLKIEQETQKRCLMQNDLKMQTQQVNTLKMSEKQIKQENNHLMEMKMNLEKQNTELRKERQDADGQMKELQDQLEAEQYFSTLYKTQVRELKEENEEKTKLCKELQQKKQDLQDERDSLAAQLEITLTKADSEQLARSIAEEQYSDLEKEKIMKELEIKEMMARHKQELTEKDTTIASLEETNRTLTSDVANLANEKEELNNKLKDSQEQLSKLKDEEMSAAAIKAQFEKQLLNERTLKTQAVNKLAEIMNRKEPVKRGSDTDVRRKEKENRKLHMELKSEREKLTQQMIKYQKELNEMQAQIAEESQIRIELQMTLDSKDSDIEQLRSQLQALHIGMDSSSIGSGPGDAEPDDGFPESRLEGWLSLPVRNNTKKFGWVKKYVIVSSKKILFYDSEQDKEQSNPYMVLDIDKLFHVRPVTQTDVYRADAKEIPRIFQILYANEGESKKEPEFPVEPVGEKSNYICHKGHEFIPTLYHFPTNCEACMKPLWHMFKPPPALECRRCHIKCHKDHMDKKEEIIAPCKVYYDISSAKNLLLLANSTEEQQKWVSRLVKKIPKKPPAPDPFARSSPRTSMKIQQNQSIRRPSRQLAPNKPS

In the case of `N=C(N)NC[C@H]1CC[C@H](C(=O)Nc2ccnc3[nH]ncc23)CC1` [Compound 143.2HCl.H2O, trans-N-(1H-pyrazolo[3,4-b]pyridin-4-yl)-4-guanidinomethylcyclohexanecarboxamide], the IC50 in data set [1] was determined as 0.47 µM; in data set [3] it was 0.88 µM; in data set [6] it was 1600 nM. The figures for the inhibition at 100 µM in data set [2] and in data set [4] were 39.4% and 77%, respectively. For the same compound, in data set [5], the “Acute toxicity (death)” value is reported as “did not cause death”.
